# Data from patent US11274332B2, “Methods of administering 3,4-diaminopyridine” (SERB SA, priority 2011, dated 2022).
# Biological target: T1, hKv1.7 (Homo sapiens, UniProt Q96RP8)
# T1 construct: expressed in transfected cells; host or cells: CHO cells (transient transfection)
# Test: Whole cell patch clamp inhibition of hKv1.7 current in transiently transfected CHO cells (Example 5)
# Format: cell-based
# Details: hKv1.7, up to 3000 μM
# Protocol: Chemicals used in solution preparation were purchased from Sigma-Aldrich (St. Louis, Mo.), unless otherwise noted, and were of ACS reagent grade purity or higher. Stock solutions of each test article (100.104 mM and 1.00 mM 3,4-DAP phosphate and 100.023 mM and 336.335 mM N-(4-aminopyridin-3-yl) acetamide HCl) were prepared in sterile water, stored refrigerated and used within one day. […] All test article solutions contained 3% sterile water. The test articles were prepared in sufficient volume to run the assay (typically 50 mL).
# CHO cells, transiently transfected with hKv1.7, were cryopreserved in 90% FBS and 10% DMSO. Frozen vials of cells were thawed rapidly in a 37° C. water bath. Cells were transferred to a 15 mL conical tube, 10 mL of growth media (Ham's/F12-PS/10% FBS) was added, the suspension was gently mixed and the tube was centrifuged at approximately 250×g for 5 min. The medium was removed, the cell pellet was resuspended in 20 mL of medium, and cells were triturated to disperse cell clumps. For electrophysiology use, 2 mL of the cell suspension was plated in each 35 mm cell culture dish. Recording began 2-3 hours after plating once the cells settled out of the media and adhered to the bottom of the culture dish. […]
# Cells were transferred to the recording chamber and superfused with vehicle control solution. […] Onset and steady state inhibition of hKv1.7 current due to the test article was measured using a pulse pattern with fixed amplitudes (depolarization: +10 mV amplitude, 300 ms duration) repeated at 10-second intervals from a holding potential of −80 mV. Current amplitude was measured at the end of the step to +10 mV. Current was monitored until a new steady state was achieved. […] The IC50 for sustained current was calculated for 3,4-DAP phosphate salt.
# For 3,4-DAP phosphate salt, the concentration-response relationship was evaluated at seven concentrations (1, 10, 30, 100, 300, 1000 and 3000 μM) and for N-(4-aminopyridin-3-yl) acetamide HCl salt, the concentration-response relationship was evaluated at three concentrations (100, 1000 and 3000 μM).
# T1 sequence (Q96RP8 whole entry): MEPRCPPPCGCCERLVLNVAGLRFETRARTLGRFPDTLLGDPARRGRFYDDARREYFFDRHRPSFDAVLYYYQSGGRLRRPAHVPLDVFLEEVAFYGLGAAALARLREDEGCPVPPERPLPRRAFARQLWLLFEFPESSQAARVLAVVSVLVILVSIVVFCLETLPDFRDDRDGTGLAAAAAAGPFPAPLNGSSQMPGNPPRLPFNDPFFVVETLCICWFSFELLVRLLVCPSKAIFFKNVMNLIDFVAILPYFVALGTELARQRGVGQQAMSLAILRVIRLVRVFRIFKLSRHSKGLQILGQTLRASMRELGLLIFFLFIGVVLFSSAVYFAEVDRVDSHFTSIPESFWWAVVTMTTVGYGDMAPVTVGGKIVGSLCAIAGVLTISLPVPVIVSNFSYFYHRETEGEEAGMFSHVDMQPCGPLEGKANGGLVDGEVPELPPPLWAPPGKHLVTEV
compound,measurement,setting,value
"CC(=O)Nc1cnccc1N [3-N-acetyl amifampridine, N-(4-aminopyridin-3-yl)acetamide]",activity on K+ channel,,inactive
same,activity on K+ channel,listed as N-acetyl metabolite,not active
